According to patent publication US20030170221A1, “STREPTOMYCES MEGASPORUS SD5, PROCESS FOR THE ISOLATION THEREOF, NOVEL FIBRINOLYTIC ENZYME PREPARED THEREFROM, PROCESS FOR THE PRODUCTION OF SAID ENZYME AND METHOD OF TREATMENT OF THROMBOLYTIC DISORDERS USING SAID ENZYME” (MAHARASHTRA ASSOC. FOR THE CULTIVATION OF SCIENCE, priority 2001, published 2003):
Read-outs that look alike come from different tables or passages of the source. Square brackets hold non-standard residues; d marks the D form. Peptide text beside a SMILES is read from it. * marks the point of attachment. Sta = CC(C)C[C@H](N)[C@@H](O)CC(=O)O; Isovaleryl = CC(C)CC(=O)*

Experiments:
[1] = test system: fibrinolytic enzyme produced by S. megasporus SD5; test: Effect of protease inhibitors on fibrinolytic activity of the crude enzyme (FIG. 5); type: biochemical, Streptomyces megasporus SD5
Source text: (§1) 1.Control, 2—Antipain—3, Bestatin, —4, Chymostatin, —5. E-64, 6—Leupeptin, 7—Pepstatin, 8 Phosphoramidon, 9—pefabloc, 10—EDTA, 11—EDTA+Ca^++, 12—Aprotinin, 13—Trypsin inhibitor, 14—β-mercaptoethanol, 15—TPCK, 16—1, 10 pheuanthroline, 17—PMSF.
To determine the class to which the enzyme belonged the effect of different protease inhibitors were studied in detail.

[2] = test system: fibrinolytic enzyme (actinokinase) produced by Streptomyces megasporus SD5, ~35 kDa, wild type; test: Effects of various inhibitors on fibrinolytic activity of the enzyme (FIG. 5); type: biochemical; settings: result in words
Protocol: as §1
The fibrinolytic (thrombolytic) activity was assayed on solid and liquid media (Harverkate & Trass 1974, Lottenberg et al. 1981). The reaction mixture (1 ml) comprised of chromogenic substrates, such as benzoyl-β-alanyl-glycyl-arginine-ρ nitroanilide (20 μmol 1^−1) in 10 mM sodium phosphate buffer, pH 8.0 and incubated at 55° C. for 30 min after addition of 1 ml, enzyme solution containing 0.5 μg protein ml^−1, cooled to room temperature and the liberation of ρ-nitroanilide was measured by increased absorbance recorded at 405 nm using a UV-VIS Spectrophotometer (DU 8B, Beckman, Sweden). One unit of the enzyme was defined as the amount of enzyme that catalysed the formation of 1 ng of ρ-nitroanilide min^−1. The caseinolytic activity was determined by Dunn (1989) in terms of μmol tyrosine min^−1. Protein was determined using Folin Ciocalteau phenol reagent. All the results of growth and assays are the means of three separate experiments.
To determine the class to which the enzyme belonged the effect of different protease inhibitors were studied in detail. As the fibrinolytic enzyme could be used as a therapeutic agent for different types of thrombosis so in vitro clot lysis was studied with both natural and synthetic clots.

actinokinase = test: Effects of inhibitors and metal ions on activity of the purified enzyme; type: biochemical, Streptomyces megasporus SD5
Protocol: (§2) Different protease inhibitors were separately dissolved in distilled water/methanol/dimethyl sulphoxide as per manufacturers protocol, so that final concentration of each inhibitor was 1 mM. The enzyme (50 μl) was mixed with same amount (50 μl) of inhibitor and incubate at ambient temperature for 30 min. The residual activity was measured at 55° C. as above using universal protease substrate and compared with that of the control without any inhibitor and the inhibition was determined as percentage taking control as 100% positive.

[3] = test system: actinokinase, fibrinolytic enzyme from Streptomyces megasporus SD5, 35 kDa serine protease, wild type; settings: 1 mM inhibitor, ambient temperature 30 min; residual activity at 55° C., universal protease substrate
Protocol: as §2

[4] = test system: actinokinase, fibrinolytic enzyme from Streptomyces megasporus SD5, 35 kDa serine protease, wild type; test: Michaelis constant with Chromozyme U as substrate, Lineweaver-Burk plot; type: biochemical; settings: in absence of plasminogen
Protocol: The thrombolytic activity was measured on standard fibrin plate using the method of Haverkate-Trass (1974) as mentioned previously and compared with available thrombolytic enzyme, urokinase, Each sample (20 μl) was put on the fibrin clot layer and incubated at both 55° C. and 37° C. for 8 h. The zone of clear areas for standard urokinase and the enzyme of the invention was measured and thrombolytic activities of both enzymes were expressed in terms of Plough units. Amidolytic activity was determined using chromogenic substrates and one unit of activity is defined as the amount of enzyme, which released […] of pNA min^−1. Amydolytic activity in liquid medium was determined using the method by Lottenberg et al (1981). Caseinolytic activity was assayed by the procedure described by Pokorny et al (1979). Protein concentration was estimated by a modification of the Lowry's method (1951).
Substrate specificity of the enzyme was assessed at 405 nm by using various synthetic peptide substrates, (20 μM) tagged with ρ-nitranilide acetate and resorufin, in the reaction mixture. The Michaelis constant (Km) was determined using Chromozyme U as substrate using line weaver Burk plot method (Jayaraman 1985).

[5] = test system: Streptomyces megasporus SD5; test: Antibiotic sensitivity of the strain; type: cell-based; settings: concentration of 50 μg ml^−1
[6] = reportedly; cited from earlier work
fibrin = settings: prior art; cited from earlier work
[7] = Pharmacological properties of thrombolytic agents in acute myocardial infarctions; settings: for Efficacy (<4 h): acute myocardial infarctions
[8] = cited from earlier work
[9] = in vivo
[10] = Table III, available enzymes; cited from earlier work
[11] = inhibitor 1 mM, purified enzyme, universal protease substrate, 55° C.

| Compound | effect of inhibitor on fibrinolytic activity of the enzyme ([1]; crude enzyme, FIG. 5) | effect of inhibitor on enzymatic activity (actinokinase; [11]) | further results |
| --- | --- | --- | --- |
| c1cnc2c(c1)ccc1cccnc12 [1,10 phenanthroline] | No change | No change in activity | effect of inhibitor on fibrinolytic activity [2]: No change in the activity |
| CC(C)C[C@H](NC(=O)[C@@H](O)[C@H](N)Cc1ccccc1)C(=O)O [Bestatin] | strongly repressed | highly repressed | – |
| CC(C)C[C@H](NC(=O)[C@@H](NC(=O)N[C@@H](Cc1ccccc1)C(=O)O)[C@@H]1CCN=C(N)N1)C(=O)N[C@H](C=O)Cc1ccccc1 [Chymostatin] | strongly repressed | highly repressed | – |
| CC(C)C[C@H](NC(=O)[C@H]1O[C@@H]1C(=O)O)C(=O)NCCCCN=C(N)N [E-64] | – | Insignificant inhibition | – |
| O=C(O)CN(CCN(CC(=O)O)CC(=O)O)CC(=O)O [EDTA] | – | – | effect of inhibitor on fibrinolytic activity of the enzyme [1]: inhibitory effect; effect of inhibitor on fibrinolytic activity [2]: inhibitory effect; effect of inhibitor on enzymatic activity (actinokinase): inhibitory effect; effect of inhibitor on enzymatic activity [3]: inhibitory effect |
| CC(=O)N[C@@H](CC(C)C)C(=O)N[C@@H](CC(C)C)C(=O)N[C@H](C=O)CCCNC(=N)N [Leupeptin] | moderately sensitive | moderately sensitive | – |
| O=S(=O)(F)Cc1ccccc1 [PMSF] | strongly repressed | highly repressed | – |
| Cl.NCCc1ccc(S(=O)(=O)F)cc1 [Pefabloc, pefabloc] | strongly repressed | highly repressed | – |
| CC(C)CC(=O)N[C@H](C(=O)N[C@H](C(=O)N[C@@H](CC(C)C)[C@@H](O)CC(=O)N[C@@H](C)C(=O)N[C@@H](CC(C)C)[C@@H](O)CC(=O)O)C(C)C)C(C)C [Pepstatin] (Isovaleryl-VV[Sta]A[Sta]-OH) | – | Insignificant inhibition | – |
| CC(C)C[C@H](NP(=O)(O)O[C@@H]1O[C@@H](C)[C@H](O)[C@@H](O)[C@H]1O)C(=O)N[C@@H](Cc1c[nH]c2ccccc12)C(=O)O [Phosphoramidon] | No change | No change in activity | – |
| Cc1ccc(S(=O)(=O)N[C@@H](Cc2ccccc2)C(=O)CCl)cc1 [TPCK] | moderately sensitive | moderately sensitive | – |
| N=C(N)NCCC[C@H](NC(=O)CNC(=O)CCNC(=O)c1ccccc1)C(=O)Nc1ccc([N+](=O)[O-])cc1 [chromozyme U, Benzoyl-β-ala-gly-arg-4-ρNA] (HELM PEPTIDE1{[O=C(c1ccccc1)[*:2]].[bAla].G.R.[O=[N+]([O-])c1ccc(N[*:1])cc1]}$$$$V2.0) | – | – | Km [4]: 2.2 µM |
| CCC[C@@H]1C[C@@H](C(=O)N[C@@H]([C@H]2O[C@H](SC)[C@H](O)[C@@H](O)[C@H]2O)[C@@H](C)O)N(C)C1 [lincomycin] | – | – | inhibition of the microorganism [5]: inhibited |
| CC(C)C[C@H](NP(=O)(O)O[C@@H]1O[C@@H](C)[C@H](O)[C@@H](O)[C@H]1O)C(=O)N[C@@H](Cc1c[nH]c2ccccc12)C(=O)O [phosphoramidin] | – | – | effect of inhibitor on fibrinolytic activity [2]: No change in the activity |
| C=C(NC(=O)C(=C)NC(=O)c1csc(C2=N[C@@H]3c4csc(n4)[C@H]4NC(=O)c5csc(n5)[C@H]([C@](C)(O)[C@@H](C)O)NC(=O)[C@H]5CSC(=N5)/C(=C/C)NC(=O)[C@H]([C@@H](C)O)NC(=O)c5csc(n5)[C@]3(CC2)NC(=O)[C@H](C)NC(=O)C(=C)NC(=O)[C@H](C)NC(=O)[C@H]([C@@H](C)CC)N[C@@H]2C=Cc3c([C@H](C)O)cc(nc3[C@H]2O)C(=O)O[C@@H]4C)n1)C(N)=O [thiostrepton] | – | – | inhibition of the microorganism [5]: inhibited |
| OCCS [β-mercaptoethanol] | – | Insignificant inhibition | – |
| Aprotinin | strongly repressed | highly repressed | – |
| Streptokinase: prior art plasminogen activator | – | – | failure rate as thrombolytic agent [6]: ≤ 25%; affinity for fibrin (fibrin): do not show any affinity; Efficacy (<4 h) [7]: 65; Adverse effects ([7]; in vivo): Haemorragic; Half life ([7]; in vivo): 23 min |
| T-PA: tissue plasmiogen activators | – | – | Efficacy (<4 h) ([8]; acute myocardial infarctions, data from the literature): 70; Half life ([8]; in vivo): 5 min |
| Urokinase | – | – | Half life [9]: 16 min; Optimum Temperature [10]: 37 °C; Optimum pH [10]: 7.5; affinity for fibrin (fibrin): do not show any affinity; Efficacy (<4 h) [7]: 65 |
